This assay has as its target T1, crosslinked smooth muscle actomyosin (chicken gizzard smooth muscle myosin subfragment-1 crosslinked to cardiac or skeletal actin) (Gallus gallus, UniProt P10587).
T1 construct: chicken gizzard smooth muscle myosin subfragment-1; from tissue; host or cells: chicken gizzard
Nature of the assay: Lead optimization pyruvate kinase/horseradish peroxidase/pyruvate oxidase-coupled ATPase assay (compound dose response). The format is biochemical. Particulars: read-out: IC50 Arithmetic Mean. Here is the method:
Screening assays were performed using a pyruvate kinase and lactate dehydrogenase-coupled ATPase assay containing the following reagents: Potassium PIPES (50 mM), MgCl2 (3 mM), KCl (100 mM), ATP (0.15 mM), DTT (1 mM), BSA (0.1 mg/ml), NADH (0.5 mM), PEP (1.5 mM), pyruvate kinase (4 U/ml), lactate dehydrogenase (8 U/ml), and antifoam (50 ppm) (concentrations expressed are final assay concentrations). The pH was adjusted to 6.80 at 22° C. by addition of potassium hydroxide. Lead optimization assays were performed with a more sensitive pyruvate kinase/horseradish peroxidase/pyruvate oxidase-coupled ATPase assay containing the following reagents: Potassium PIPES (12 mM), MgCl2 (2 mM), KCl (100 mM), ATP (0.15 mM), BSA (0.05 mg/ml), potassium phosphate (2 mM), amplex red (0.1 mM), PEP (0.1 mM), pyruvate kinase (4 U/ml), horseradish peroxidase (0.5 U/ml), pyruvate oxidase (0.5 U/ml), and antifoam (50 ppm) (concentrations expressed are final assay concentrations). The pH was adjusted to 7.00 at 22° C. by addition of potassium hydroxide.
The protein components specific to this assay are chicken gizzard smooth muscle myosin subfragment-1 that has been chemically crosslinked to either cardiac or skeletal actin using an excess of 1-Ethyl-3-[3-dimethylaminopropyl]carbodiimide hydrochloride and N-hydroxysuccinimide. The exact concentration of the crosslinked smooth muscle myosin in the assay is determined empirically, by titration to achieve a desired rate of ATP hydrolysis. The concentration varies between protein preparations due to variations in the fraction of active molecules in each preparation.
Compound dose response assays are performed by first preparing a dilution series of test compound, each with an assay mixture containing potassium PIPES, MgCl2, KCl, ATP, BSA, potassium phosphate, amplex red, PEP, crosslinked smooth muscle actomyosin (subfragment-1), antifoam, and water. The assay is started by adding an equal volume of solution containing potassium Pipes, MgCl2, KCl, BSA, potassium phosphate, pyruvate kinase, horseradish peroxidase, pyruvate oxidase, antifoam, and water. ATP hydrolysis is monitored by measuring the fluorescence of amplex red (excitation at 480 nm, emission at 615 nm). The resulting dose response curve is fit by the 4 parameter equation y=Bottom+((Top-Bottom)/(1+((IC50/X)^Hill))). The IC50 is defined as the concentration at which ATPase activity is midway between the top and bottom of the dose response curve.

Each structure is given as a SMILES string.

Usually IC50 stands for the midpoint of a concentration-inhibition curve.

In the case of `CCc1ccc(NC(=O)OCC2(C(=O)NCc3ccccc3Cl)CCN(C(=O)C(O)CO)CC2)cc1` (stereo not shown) [(1-(2,3-dihydroxypropanoyl)-4-{[N-(4-ethylphenyl)carbamoyloxy]methyl}(4-piperidyl))-N-[(2-chlorophenyl)methyl]carboxamide], the concentration for half-maximal inhibition (IC50) was determined as 123 nM. Under `CCc1ccc(NC(=O)OCC2(C(=O)NCc3ccccc3Cl)CCN(C(=O)C(N)CCN)CC2)cc1` (stereo not shown) [(1-(2,4-diaminobutanoyl)-4-{[N-(4-ethylphenyl)carbamoyloxy]methyl}(4-piperidyl))-N-[(2-chlorophenyl)methyl]carboxamide] stands 585 nM; under `CCc1ccc(NC(=O)OCC2(C(=O)NCc3ccccc3Cl)CCN(C(=O)C(N)CCCN)CC2)cc1` (stereo not shown) [(1-(2,5-diaminopentanoyl)-4-{[N-(4-ethylphenyl)carbamoyloxy]methyl}(4-piperidyl))-N-[(2-chlorophenyl)methyl]carboxamide], 1490 nM; under `CCc1ccc(NC(=O)OCC2(C(=O)NCc3ccccc3Cl)CCN(C(=O)C(C)(C)N)CC2)cc1` [(1-(2-amino-2-methylpropanoyl)-4-{[N-(4-ethylphenyl)carbamoyloxy]methyl}(4-piperidyl))-N-[(2-chlorophenyl)methyl]carboxamide], 670 nM. Consider `CCc1ccc(NC(=O)OCC2(C(=O)NCc3ccccc3Cl)CCN(C(=O)C(N)CC#N)CC2)cc1` (stereo not shown) [(1-(2-amino-3-cyanopropanoyl)-4-{[N-(4-ethylphenyl)carbamoyloxy]methyl}(4-piperidyl))-N-[(2-chlorophenyl)methyl]carboxamide], for which the IC50 was 797 nM.

Consider `CCc1ccc(NC(=O)OCC2(C(=O)NCc3ccccc3Cl)CCN(C(=O)C(N)CO)CC2)cc1` (stereo not shown) [(1-(2-amino-3-hydroxypropanoyl)-4-{[N-(4-ethylphenyl)carbamoyloxy]methyl}(4-piperidyl))-N-[(2-chlorophenyl)methyl]carboxamide], for which the IC50 came to 143 nM. In the case of `CCc1ccc(NC(=O)OCC2(C(=O)NCc3ccccc3Cl)CCN(C(=O)C(N)C(C)C)CC2)cc1` (stereo not shown) [(1-(2-amino-3-methylbutanoyl)-4-{[N-(4-ethylphenyl)carbamoyloxy]methyl}(4-piperidyl))-N-[(2-chlorophenyl)methyl]carboxamide] it was 540 nM; in that of `CCc1ccc(NC(=O)OCC2(C(=O)NCc3ccccc3Cl)CCCN(C(=O)CN)C2)cc1` (stereo not shown) [(1-(2-aminoacetyl)-3-{[N-(4-ethylphenyl)carbamoyloxy]methyl}(3-piperidyl))-N-[(2-chlorophenyl)methyl]carboxamide], 474 nM. In the case of `CCc1ccc(NC(=O)OCC2(C(=O)NCc3ccccc3Cl)CCN(C(=O)CN)C2)cc1` (stereo not shown) [(1-(2-aminoacetyl)-3-{[N-(4-ethylphenyl)carbamoyloxy]methyl}pyrrolidin-3-yl)-N-[(2-chlorophenyl)methyl]carboxamide] it was 526 nM; in that of `CCc1ccc(NC(=O)OCCC2(C(=O)NCc3ccccc3Cl)CCN(C(=O)CN)CC2)cc1` [(1-(2-aminoacetyl)-4-{2-[N-(4-ethylphenyl)carbamoyloxy]ethyl}(4-piperidyl))-N-[(2-chlorophenyl)methyl]carboxamide], 2440 nM; in that of `Cc1ccc(NC(=O)OCC2(C(=O)NCc3ccccc3Cl)CCN(C(=O)CN)CC2)c(Cl)c1` [(1-(2-aminoacetyl)-4-{[N-(2-chloro-4-methylphenyl)carbamoyloxy]methyl}(4-piperidyl))-N-[(2-chlorophenyl)methyl]carboxamide], 281 nM.

On to `Cc1ccc(NC(=O)OCC2(C(=O)NCc3ccccc3Cl)CCN(C(=O)CN)CC2)cc1F` [(1-(2-aminoacetyl)-4-{[N-(3-fluoro-4-methylphenyl)carbamoyloxy]methyl}(4-piperidyl))-N-[(2-chlorophenyl)methyl]carboxamide], for which the 50% inhibitory concentration (IC50) is 742 nM. As to `NCC(=O)N1CCC(COC(=O)Nc2ccc(Cl)cc2)(C(=O)NCc2ccccc2Cl)CC1` [(1-(2-aminoacetyl)-4-{[N-(4-chlorophenyl)carbamoyloxy]methyl}(4-piperidyl))-N-[(2-chlorophenyl)methyl]carboxamide], the concentration for half-maximal inhibition (IC50) worked out at 569 nM.

In the case of `N#Cc1ccc(NC(=O)OCC2(C(=O)NCc3ccccc3Cl)CCN(C(=O)CN)CC2)cc1` [(1-(2-aminoacetyl)-4-{[N-(4-cyanophenyl)carbamoyloxy]methyl}(4-piperidyl))-N-[(2-chlorophenyl)methyl]carboxamide], the 50% inhibitory concentration (IC50) came to 7780 nM. In the case of `CCc1ccc(NC(=O)OCC2(C(=O)NCc3ccccc3Cl)CCN(C(=O)CN)CC2)cc1` [(1-(2-aminoacetyl)-4-{[N-(4-ethylphenyl)carbamoyloxy]methyl}(4-piperidyl))-N-[(2-chlorophenyl)methyl]carboxamide] it was 175 nM; in that of `CCc1ccc(NC(=O)OCC2(C(=O)NCc3ccccc3C#N)CCN(C(=O)CN)CC2)cc1` [(1-(2-aminoacetyl)-4-{[N-(4-ethylphenyl)carbamoyloxy]methyl}(4-piperidyl))-N-[(2-cyanophenyl)methyl]carboxamide], 904 nM. Under `CCc1ccc(NC(=O)OCC2(C(=O)NCc3ccccc3F)CCN(C(=O)CN)CC2)cc1` [(1-(2-aminoacetyl)-4-{[N-(4-ethylphenyl)carbamoyloxy]methyl}(4-piperidyl))-N-[(2-fluorophenyl)methyl]carboxamide] stands 307 nM. Consider `CCc1ccc(NC(=O)OCC2(C(=O)NCc3ccccc3OC)CCN(C(=O)CN)CC2)cc1` [(1-(2-aminoacetyl)-4-{[N-(4-ethylphenyl)carbamoyloxy]methyl}(4-piperidyl))-N-[(2-methoxyphenyl)methyl]carboxamide], for which the IC50 was found to be 2160 nM. Take `CCc1ccc(NC(=O)OCC2(C(=O)NCc3ccccc3C)CCN(C(=O)CN)CC2)cc1` [(1-(2-aminoacetyl)-4-{[N-(4-ethylphenyl)carbamoyloxy]methyl}(4-piperidyl))-N-[(2-methylphenyl)methyl]carboxamide]: the IC50 was determined as 167 nM. In the case of `CCc1ccc(NC(=O)OCC2(C(=O)NCc3ccccc3)CCN(C(=O)CN)CC2)cc1` [(1-(2-aminoacetyl)-4-{[N-(4-ethylphenyl)carbamoyloxy]methyl}(4-piperidyl))-N-benzylcarboxamide] it was 8110 nM. Under `CCc1ccc(NC(=O)OCC2(C(=O)NCc3ccccc3CO)CCN(C(=O)CN)CC2)cc1` [(1-(2-aminoacetyl)-4-{[N-(4-ethylphenyl)carbamoyloxy]methyl}(4-piperidyl))-N-{[2-(hydroxymethyl)phenyl]methyl}carboxamide] stands 949 nM; under `NCC(=O)N1CCC(COC(=O)Nc2ccc(F)cc2)(C(=O)NCc2ccccc2Cl)CC1` [(1-(2-aminoacetyl)-4-{[N-(4-fluorophenyl)carbamoyloxy]methyl}(4-piperidyl))-N-[(2-chlorophenyl)methyl]carboxamide], 14600 nM; under `Cc1ccc(NC(=O)OCC2(C(=O)NCc3ccccc3Cl)CCN(C(=O)CN)CC2)cc1` [(1-(2-aminoacetyl)-4-{[N-(4-methylphenyl)carbamoyloxy]methyl}(4-piperidyl))-N-[(2-chlorophenyl)methyl]carboxamide], 191 nM. Under `NCC(=O)N1CCC(COC(=O)Nc2ccc(-c3ccccc3)cc2)(C(=O)NCc2ccccc2Cl)CC1` [(1-(2-aminoacetyl)-4-{[N-(4-phenylphenyl)carbamoyloxy]methyl}(4-piperidyl))-N-[(2-chlorophenyl)methyl]carboxamide] stands 277 nM; under `CCc1ccc(NC(=O)OCC2(C(=O)NCc3ccccc3Cl)CCN(CCN)CC2)cc1` [(1-(2-aminoethyl)-4-{[N-(4-ethylphenyl)carbamoyloxy]methyl}(4-piperidyl))-N-[(2-chlorophenyl)methyl]carboxamide], 1160 nM; under `CCc1ccc(NC(=O)OCC2(C(=O)NCc3ccccc3Cl)CCN(C(=O)C(O)CN)CC2)cc1` (stereo not shown) [(1-(3-amino-2-hydroxypropanoyl)-4-{[N-(4-ethylphenyl)carbamoyloxy]methyl}(4-piperidyl))-N-[(2-chlorophenyl)methyl]carboxamide], 120 nM.

For the compound `CCc1ccc(NC(=O)OCC2(C(=O)NCc3ccccc3Cl)CCN(C(=O)C(O)CCN)CC2)cc1` (stereo not shown) [(1-(4-amino-2-hydroxybutanoyl)-4-{[N-(4-ethylphenyl)carbamoyloxy]methyl}(4-piperidyl))-N-[(2-chlorophenyl)methyl]carboxamide], the half-maximal inhibitory concentration (IC50) was 187 nM. In the case of `CCc1ccc(NC(=O)OCC2(C(=O)NCc3ccccc3Cl)CCN(C(=O)CCCN)CC2)cc1` [(1-(4-aminobutanoyl)-4-{[N-(4-ethylphenyl)carbamoyloxy]methyl}(4-piperidyl))-N-[(2-chlorophenyl)methyl]carboxamide] it was 246 nM.

Values taken from patent US8071625B2, “Certain chemical entities, compositions, and methods” (Cytokinetics, Inc., priority 2006, dated 2011).
